Data: paper PMC7316778 (Nature Communications, 2020)
Values joined by “and” are separate entries in the source; they are usually repeats but may differ in a detail not shown here. Equal values may be shown once. Read-outs that look alike come from different tables or passages of the source.

Key:
RIPK2 = RIPK2 (Homo sapiens, UniProt O43353); test: SelectScreen kinase assay
Procedure: (§1) Selectivity profiling assays were performed by the Invitrogen SelectScreen™ Services. […] The concentration of ATP was selected to be equal to the KM, unless indicated otherwise.

STK38 (NDR) = STK38 (NDR) (Homo sapiens, UniProt Q15208); test: SelectScreen kinase assay; conditions: for Inhibition at 1 µM (%): LanthaScreen Binding
STK38 (NDR), sequence (Q15208 whole entry): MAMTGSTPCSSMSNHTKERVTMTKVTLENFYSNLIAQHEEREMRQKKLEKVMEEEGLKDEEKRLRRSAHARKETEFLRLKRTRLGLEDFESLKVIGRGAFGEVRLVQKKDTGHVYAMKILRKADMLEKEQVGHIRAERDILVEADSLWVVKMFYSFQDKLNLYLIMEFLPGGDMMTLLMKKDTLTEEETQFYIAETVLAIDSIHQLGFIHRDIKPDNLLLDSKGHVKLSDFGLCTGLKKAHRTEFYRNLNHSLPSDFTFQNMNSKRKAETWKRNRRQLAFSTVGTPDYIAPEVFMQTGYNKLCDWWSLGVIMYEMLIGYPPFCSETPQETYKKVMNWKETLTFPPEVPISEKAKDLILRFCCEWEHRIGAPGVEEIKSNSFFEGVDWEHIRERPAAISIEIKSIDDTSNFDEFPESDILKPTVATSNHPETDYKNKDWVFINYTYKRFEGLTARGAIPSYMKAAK
Procedure: as §1

FES^S700C = FES^S700C (Homo sapiens, UniProt P07332, S700C); test: Inhibitor washout by dialysis; assay type: binding; set-up: expressed in transfected cells; host or cells: HEK293T (transient, PEI)
FES^S700C, sequence (P07332 whole entry S700C): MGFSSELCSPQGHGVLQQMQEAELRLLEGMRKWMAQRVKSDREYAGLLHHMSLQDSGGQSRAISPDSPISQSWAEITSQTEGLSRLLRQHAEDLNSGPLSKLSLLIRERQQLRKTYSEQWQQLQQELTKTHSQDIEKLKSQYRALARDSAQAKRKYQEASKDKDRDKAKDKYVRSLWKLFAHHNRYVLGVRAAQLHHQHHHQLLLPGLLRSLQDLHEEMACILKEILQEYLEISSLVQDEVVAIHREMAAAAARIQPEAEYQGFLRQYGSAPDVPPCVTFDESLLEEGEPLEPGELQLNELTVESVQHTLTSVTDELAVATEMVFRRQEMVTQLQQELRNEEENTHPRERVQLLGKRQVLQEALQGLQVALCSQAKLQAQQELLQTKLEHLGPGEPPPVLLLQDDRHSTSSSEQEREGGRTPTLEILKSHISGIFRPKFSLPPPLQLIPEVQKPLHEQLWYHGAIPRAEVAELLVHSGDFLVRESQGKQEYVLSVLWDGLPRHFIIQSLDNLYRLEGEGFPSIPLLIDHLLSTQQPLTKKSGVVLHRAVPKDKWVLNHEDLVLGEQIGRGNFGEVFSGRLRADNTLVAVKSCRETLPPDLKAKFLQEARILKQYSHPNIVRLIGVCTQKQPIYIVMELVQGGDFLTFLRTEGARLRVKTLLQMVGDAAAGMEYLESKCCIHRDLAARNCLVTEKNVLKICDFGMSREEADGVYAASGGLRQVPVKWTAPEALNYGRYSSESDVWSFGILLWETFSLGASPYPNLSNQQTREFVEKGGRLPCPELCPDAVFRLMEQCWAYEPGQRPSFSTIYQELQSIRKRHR

CSNK1E (CK1 epsilon) = CSNK1E (CK1 epsilon) (Homo sapiens, UniProt P49674); test: SelectScreen kinase assay; conditions: for Inhibition at 1 µM (%): CSNK1E (CK1 epsilon), ZLYTE, ATP Km app
CSNK1E (CK1 epsilon), sequence (P49674 whole entry): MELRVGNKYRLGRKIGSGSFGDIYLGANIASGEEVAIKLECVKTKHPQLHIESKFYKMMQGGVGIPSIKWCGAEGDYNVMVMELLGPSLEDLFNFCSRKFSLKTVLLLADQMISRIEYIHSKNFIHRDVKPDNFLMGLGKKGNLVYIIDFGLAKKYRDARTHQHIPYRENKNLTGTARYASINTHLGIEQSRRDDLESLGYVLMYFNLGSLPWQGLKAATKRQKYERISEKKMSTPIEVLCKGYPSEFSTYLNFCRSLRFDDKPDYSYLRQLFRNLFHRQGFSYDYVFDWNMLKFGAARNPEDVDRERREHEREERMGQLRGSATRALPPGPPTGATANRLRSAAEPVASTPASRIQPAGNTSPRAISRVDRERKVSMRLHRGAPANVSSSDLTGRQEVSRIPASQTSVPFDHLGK
Procedure: as §1

NEK1 = NEK1 (Homo sapiens, UniProt Q96PY6); test: SelectScreen kinase assay
Procedure: as §1

EPHA7 = EPHA7 (Homo sapiens, UniProt Q15375); test: SelectScreen kinase assay; conditions: 1 h, 1 μM WEL028, 1 h preincubation
Procedure: as §1

MST1R (RON) = MST1R (RON) (Homo sapiens, UniProt Q04912); test: SelectScreen kinase assay
MST1R (RON), sequence (Q04912 25-1400): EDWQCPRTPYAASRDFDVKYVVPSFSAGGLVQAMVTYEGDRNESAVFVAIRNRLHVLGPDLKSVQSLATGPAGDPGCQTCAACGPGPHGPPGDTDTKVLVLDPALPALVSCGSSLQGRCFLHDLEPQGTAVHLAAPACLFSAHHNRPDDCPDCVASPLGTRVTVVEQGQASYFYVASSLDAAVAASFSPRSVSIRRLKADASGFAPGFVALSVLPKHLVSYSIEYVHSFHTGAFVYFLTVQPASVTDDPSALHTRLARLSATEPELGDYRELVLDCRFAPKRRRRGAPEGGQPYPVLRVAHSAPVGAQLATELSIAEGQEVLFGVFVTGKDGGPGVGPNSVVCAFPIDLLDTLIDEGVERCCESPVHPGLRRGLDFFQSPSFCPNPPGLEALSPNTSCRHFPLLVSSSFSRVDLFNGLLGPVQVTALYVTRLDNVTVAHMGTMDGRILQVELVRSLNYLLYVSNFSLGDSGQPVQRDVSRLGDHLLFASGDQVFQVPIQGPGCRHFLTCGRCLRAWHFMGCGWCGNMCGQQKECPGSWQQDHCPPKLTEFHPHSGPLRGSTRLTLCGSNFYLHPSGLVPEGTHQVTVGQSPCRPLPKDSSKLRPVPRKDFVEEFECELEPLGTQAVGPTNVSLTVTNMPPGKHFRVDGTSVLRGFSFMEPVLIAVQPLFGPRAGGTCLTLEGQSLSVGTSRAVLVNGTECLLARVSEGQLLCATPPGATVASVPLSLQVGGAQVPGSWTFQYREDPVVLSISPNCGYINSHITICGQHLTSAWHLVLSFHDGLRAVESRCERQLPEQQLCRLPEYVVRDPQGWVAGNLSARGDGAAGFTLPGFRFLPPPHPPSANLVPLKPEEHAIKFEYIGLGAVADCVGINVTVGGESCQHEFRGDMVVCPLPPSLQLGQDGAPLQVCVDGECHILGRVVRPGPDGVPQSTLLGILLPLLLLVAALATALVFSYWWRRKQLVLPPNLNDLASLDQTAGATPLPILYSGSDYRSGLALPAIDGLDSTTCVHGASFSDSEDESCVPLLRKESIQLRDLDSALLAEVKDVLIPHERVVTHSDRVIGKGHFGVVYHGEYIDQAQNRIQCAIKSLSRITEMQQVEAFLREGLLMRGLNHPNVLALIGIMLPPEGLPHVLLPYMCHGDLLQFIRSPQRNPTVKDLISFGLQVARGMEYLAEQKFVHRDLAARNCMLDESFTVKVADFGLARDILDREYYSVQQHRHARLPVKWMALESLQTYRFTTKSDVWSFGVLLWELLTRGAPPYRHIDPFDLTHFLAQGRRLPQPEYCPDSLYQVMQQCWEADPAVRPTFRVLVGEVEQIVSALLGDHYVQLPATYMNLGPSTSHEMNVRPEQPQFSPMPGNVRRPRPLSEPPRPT
Procedure: as §1

CSNK2A2 (CK2 alpha 2) = CSNK2A2 (CK2 alpha 2) (Homo sapiens, UniProt P19784); test: SelectScreen kinase assay
Procedure: as §1

PRKACA (PKA) = PRKACA (PKA) (Homo sapiens, UniProt P17612); test: SelectScreen kinase assay
Procedure: as §1

CAMK1G (CAMKI gamma) = CAMK1G (CAMKI gamma) (Homo sapiens, UniProt Q96NX5); test: SelectScreen kinase assay; conditions: for Inhibition at 1 µM (%): CAMK1G (CAMKI gamma), ZLYTE, ATP Km app
CAMK1G (CAMKI gamma), sequence (Q96NX5 whole entry): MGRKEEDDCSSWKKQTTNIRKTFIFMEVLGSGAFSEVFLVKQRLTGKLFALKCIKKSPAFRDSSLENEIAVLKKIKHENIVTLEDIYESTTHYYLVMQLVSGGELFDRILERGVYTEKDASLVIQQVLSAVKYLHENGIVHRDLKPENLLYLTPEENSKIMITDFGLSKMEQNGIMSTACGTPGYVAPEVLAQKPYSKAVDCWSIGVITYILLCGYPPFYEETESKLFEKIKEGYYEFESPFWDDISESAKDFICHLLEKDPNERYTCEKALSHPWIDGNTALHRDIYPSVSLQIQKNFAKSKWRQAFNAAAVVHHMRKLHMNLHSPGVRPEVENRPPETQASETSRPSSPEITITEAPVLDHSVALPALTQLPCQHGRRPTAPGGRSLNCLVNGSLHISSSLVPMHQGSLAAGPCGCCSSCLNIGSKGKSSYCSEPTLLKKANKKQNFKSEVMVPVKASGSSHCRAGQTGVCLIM
Procedure: as §1

IRAK4 = IRAK4 (Homo sapiens, UniProt Q9NWZ3); test: SelectScreen kinase assay
IRAK4, sequence (Q9NWZ3 whole entry): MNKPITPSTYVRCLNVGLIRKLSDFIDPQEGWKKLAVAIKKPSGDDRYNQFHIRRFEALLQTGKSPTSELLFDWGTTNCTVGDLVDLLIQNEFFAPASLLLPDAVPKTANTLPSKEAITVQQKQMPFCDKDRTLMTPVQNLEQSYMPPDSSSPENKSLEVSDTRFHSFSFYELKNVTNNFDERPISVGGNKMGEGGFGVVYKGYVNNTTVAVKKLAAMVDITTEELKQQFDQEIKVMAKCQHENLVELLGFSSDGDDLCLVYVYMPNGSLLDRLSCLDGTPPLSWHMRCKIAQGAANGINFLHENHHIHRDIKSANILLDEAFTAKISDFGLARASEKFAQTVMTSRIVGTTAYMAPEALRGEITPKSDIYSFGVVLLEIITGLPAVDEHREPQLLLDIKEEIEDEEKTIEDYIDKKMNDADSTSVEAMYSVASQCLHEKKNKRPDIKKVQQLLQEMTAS
Procedure: as §1

MAP2K6 (MKK6) = target: T1, MAP2K6 (MKK6) (Homo sapiens, UniProt P52564); test: SelectScreen kinase assay
T1 sequence (P52564 1-334): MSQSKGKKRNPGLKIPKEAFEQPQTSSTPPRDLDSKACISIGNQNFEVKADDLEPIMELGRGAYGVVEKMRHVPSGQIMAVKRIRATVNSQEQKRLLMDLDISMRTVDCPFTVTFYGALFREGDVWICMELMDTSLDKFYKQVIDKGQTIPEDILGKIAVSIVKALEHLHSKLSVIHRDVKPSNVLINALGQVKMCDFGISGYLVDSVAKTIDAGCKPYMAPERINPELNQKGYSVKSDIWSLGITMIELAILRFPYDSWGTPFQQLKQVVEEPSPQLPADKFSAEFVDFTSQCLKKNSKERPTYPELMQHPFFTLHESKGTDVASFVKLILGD
Procedure: as §1

PKN1 (PRK1) = PKN1 (PRK1) (Homo sapiens, UniProt Q16512); test: SelectScreen kinase assay
PKN1 (PRK1), sequence (Q16512 whole entry): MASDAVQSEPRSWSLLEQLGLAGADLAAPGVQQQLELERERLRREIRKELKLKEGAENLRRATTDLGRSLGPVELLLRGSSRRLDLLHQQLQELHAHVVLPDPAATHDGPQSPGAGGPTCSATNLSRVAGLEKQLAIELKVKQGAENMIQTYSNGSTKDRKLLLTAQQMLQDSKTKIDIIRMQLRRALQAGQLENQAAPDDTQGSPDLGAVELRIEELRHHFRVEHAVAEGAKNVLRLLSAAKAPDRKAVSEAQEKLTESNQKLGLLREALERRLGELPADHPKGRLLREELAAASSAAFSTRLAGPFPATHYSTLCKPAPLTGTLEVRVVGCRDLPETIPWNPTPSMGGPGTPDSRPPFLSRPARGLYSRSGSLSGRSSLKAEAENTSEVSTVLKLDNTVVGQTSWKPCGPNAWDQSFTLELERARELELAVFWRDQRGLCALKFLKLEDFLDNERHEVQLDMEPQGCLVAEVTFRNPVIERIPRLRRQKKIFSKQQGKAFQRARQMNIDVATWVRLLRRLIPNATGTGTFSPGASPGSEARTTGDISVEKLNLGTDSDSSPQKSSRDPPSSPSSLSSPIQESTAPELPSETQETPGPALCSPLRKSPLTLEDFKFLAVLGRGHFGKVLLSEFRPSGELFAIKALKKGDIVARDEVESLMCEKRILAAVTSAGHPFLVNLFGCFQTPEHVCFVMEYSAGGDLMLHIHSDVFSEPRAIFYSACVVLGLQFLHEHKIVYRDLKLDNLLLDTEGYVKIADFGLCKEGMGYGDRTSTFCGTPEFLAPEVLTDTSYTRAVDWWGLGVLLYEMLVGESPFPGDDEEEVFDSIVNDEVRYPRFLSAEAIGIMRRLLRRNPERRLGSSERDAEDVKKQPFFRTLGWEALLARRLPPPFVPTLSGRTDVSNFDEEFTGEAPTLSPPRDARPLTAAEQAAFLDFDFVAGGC
Procedure: as §1

BRAF = test: SelectScreen kinase assay; conditions: IC50 on that kinase divided by IC50 on FES^S700C
Procedure: as §1

STK39 (STLK3) = STK39 (STLK3) (Homo sapiens, UniProt Q9UEW8); test: SelectScreen kinase assay
Procedure: as §1

GRK5 = GRK5 (Homo sapiens, UniProt P34947); test: SelectScreen kinase assay
Procedure: as §1

CAMK2G (CaMKII gamma) = CAMK2G (CaMKII gamma) (Homo sapiens, UniProt Q13555); test: SelectScreen kinase assay
Procedure: as §1

JAK2 = JAK2 (Homo sapiens, UniProt O60674); test: SelectScreen kinase assay; conditions: 1 μM WEL028, 1 h preincubation
Procedure: as §1

[1] = read-out: Inhibition at 1 µM (%)
[2] = 1 h, 1 μM WEL028, 1 h preincubation

With C#CCOc1ccc(Nc2ncc(Cl)c(Nc3ccccc3NC(=O)C=C)n2)c(OC)c1 [Compound 6] the inhibition at 1 µM (RIPK2; 1 h) was 1%, the inhibition at 1 µM (RIPK2; [1]) was 1% and the “Inhibition at 1 µM (%)” value (STK38 (NDR)) was 2%. For the same molecule, the “Inhibition at 1 µM (%)” value (STK38 (NDR); listed as WEL028, 1 µM) was 6%, the inhibition at 1 µM (STK38 (NDR); [2]) was 4% and the IC80 (FES^S700C; concentration used for dialysis, 30 min, rt) was 231 nM. The “Relative FES labeling (% of vehicle), Pre-dialysis” value (FES^S700C; inhibitor at IC80, WEL033 250 nM, replicates, listed as WEL028) was 2.76% and 2.085% and 2.269%, the “Relative FES labeling (% of vehicle), Post-dialysis” value (FES^S700C; overnight dialysis at 4 °C, WEL033 250 nM, replicates, listed as WEL028) was 10.52% and 32.8765% and 11.5588% and the inhibition at 1 µM (CSNK1E (CK1 epsilon); [2]) was 9%. The “Inhibition at 1 µM (%)” value (CSNK1E (CK1 epsilon)) was 14%, the “Inhibition at 1 µM (%)” value (CSNK1E (CK1 epsilon); listed as WEL028, 1 µM) was 4% and the inhibition at 1 µM (NEK1; [2]) was 6%. The “Inhibition at 1 µM (%)” value (NEK1; NEK1, 1 µM, ZLYTE, ATP Km app) was 12%, the inhibition at 1 µM (EPHA7) was 4% and the inhibition at 1 µM (MST1R (RON); [2]) was 5%. The “Inhibition at 1 µM (%)” value (MST1R (RON); MST1R (RON), 1 µM, ZLYTE, ATP Km app, listed as WEL028, 1 µM) was 10% and 0%, the inhibition at 1 µM (CSNK2A2 (CK2 alpha 2); 1 h) was 6% and the inhibition at 1 µM (CSNK2A2 (CK2 alpha 2); [1]) was 6%. For the same molecule, the inhibition at 1 µM (PRKACA (PKA); [2]) was 2%, the “Inhibition at 1 µM (%)” value (PRKACA (PKA); PRKACA (PKA), 1 µM, ZLYTE, ATP Km app, listed as WEL028, 1 µM) was 4% and -1% and the inhibition at 1 µM (CAMK1G (CAMKI gamma); [2]) was 2%. The “Inhibition at 1 µM (%)” value (CAMK1G (CAMKI gamma)) was 3%, the “Inhibition at 1 µM (%)” value (CAMK1G (CAMKI gamma); listed as WEL028, 1 µM) was 1% and the “Inhibition (%)” value (IRAK4; 1 μM WEL028, 1 h preincubation) was 0%. The “Inhibition at 1 µM (%)” value (IRAK4; IRAK4, 1 µM, ZLYTE, ATP Km app, listed as WEL028, 1 µM) was -3% and 3%, the IC50 (MAP2K6 (MKK6)) was 316 nM and the inhibition at 1 µM (MAP2K6 (MKK6); [2]) was 73%. For the same molecule, the inhibition at 10 µM (MAP2K6 (MKK6); 1 h, log[inhibitor] (M) -5.00, ZLYTE, ATP 100) was 92%, the inhibition at 3.311 µM (MAP2K6 (MKK6); 1 h, log[inhibitor] (M) -5.48, ZLYTE, ATP 100) was 96% and the inhibition at 1.122 µM (MAP2K6 (MKK6); 1 h, log[inhibitor] (M) -5.95, ZLYTE, ATP 100) was 80%. It also gave an inhibition at 0.3715 µM (MAP2K6 (MKK6); 1 h, log[inhibitor] (M) -6.43, ZLYTE, ATP 100) of 51%, an inhibition at 0.123 µM (MAP2K6 (MKK6); 1 h, log[inhibitor] (M) -6.91, ZLYTE, ATP 100) of 29% and an inhibition at 0.0138 µM (MAP2K6 (MKK6); 1 h, log[inhibitor] (M) -7.86, ZLYTE, ATP 100) of 11%. It also gave an inhibition at 0.001514 µM (MAP2K6 (MKK6); 1 h, log[inhibitor] (M) -8.82, ZLYTE, ATP 100) of 4%, an Apparent fold selectivity (MAP2K6 (MKK6); IC50 on that kinase divided by IC50 on FES^S700C) of 68 fold and an inhibition at 1 µM (MAP2K6 (MKK6); read-out: Inhibition at 1 µM (%), MAP2K6 (MKK6), 1 µM, ZLYTE, ATP 100) of 73%. For the same molecule, the inhibition at 1 µM (PKN1 (PRK1); [2]) was 7%, the “Inhibition at 1 µM (%)” value (PKN1 (PRK1); PKN1 (PRK1), 1 µM, ZLYTE, ATP Km app, listed as WEL028, 1 µM) was 5% and the inhibition at 1 µM (PKN1 (PRK1); read-out: Inhibition at 1 µM (%), PKN1 (PRK1), 1 µM, ZLYTE, ATP Km app) was 8%. The Apparent fold selectivity (BRAF) was 25 fold, the “Inhibition at 1 µM (%)” value (STK39 (STLK3); 1 µM, LanthaScreen Binding, listed as WEL028, 1 µM) was 6% and the inhibition at 1 µM (STK39 (STLK3); [2]) was 8%. The inhibition at 1 µM (STK39 (STLK3); read-out: Inhibition at 1 µM (%), 1 µM, LanthaScreen Binding) was 11%, the inhibition at 1 µM (GRK5; 1 h) was 4% and the inhibition at 1 µM (GRK5; [1]) was 4%. The inhibition at 1 µM (CAMK2G (CaMKII gamma); [2]) was 3%, the “Inhibition at 1 µM (%)” value (CAMK2G (CaMKII gamma); CAMK2G (CaMKII gamma), 1 µM, LanthaScreen Binding) was 13% and the “Inhibition (%)” value (JAK2) was 0%.
